Laboratory results published in patent US20260356860A1, “2-SUBSTITUTED 3,4A,5,7,8,8A-HEXAHYDRO-4H-THIOPYRANO[4,3-DJPYRIMIDIN-4-ONES FOR WOUND TREATMENT” (priority 2022, published 2026).

What was measured:
[1] = test system: full thickness open excisional wounds; experiment: Full thickness open excisional wound healing study; assay type: in vivo, Yucatan Miniature Swine; conditions: day 3 to day 22
Experimental: (§1) A 21-day full thickness open excisional wound healing study was conducted on Yucatan™ Miniature Swine (Sinclair BioResources, Auxvasse, Missouri, USA) to evaluate the efficacy of healing and local tissue reaction of compounds of Formula (I). Compounds and controls were topically administered on full thickness open excisional wounds once every other day (total 11 doses).
The negative control for this study was saline (0.9%). The tes compositions for these studies are described as follows.
The test composition in the full thickness open excisional wound studies for compounds without GO-HA (no GO-HA added) was a mixture with an overall concentration of 0.25 to 0.27 mg/mL of the respective compound in serum formulation as follows: compound (10 mg), butylene glycol (1.80 mL), polysorbate 20 (1.80 mL), phosphatidyl choline (0.44 g), ethanol (1.80 mL), ultra pure water (30 mL), and hydroxypropyl cellulose (0.285 g).
The test composition in the full thickness open excisional wounds studies for compounds with GO-HA (Compound+GO-HA) was a mixture with an overall concentration of 1.0 mg/mL of the respective compound and 1.0 mg/mL of GO-HA in serum formulation as follows: compound (35 mg), butylene glycol (1.8 mL), polysorbate 20 (1.8 mL), phosphotidyl choline (0.44 g), ethanol (1.8 mL), GO-HA (35 mg), ultra pure water (30 mL), and hydroxypropyl cellulose (0.285 g). […]

[2] = test system: full thickness excisional wounds; experiment: Rete ridge formation (full thickness wound healing study); assay type: in vivo, Yucatan Miniature Swine; conditions: rete ridge/mm
Experimental: as §1
(§2) Additional tests were performed including elasticity (Table 12); max force (Table 13); tensile strength (strain) (Table 14); energy peak (Table 15); rete-ridge formation; and collagen organization (plane polarized light) (FIG. 24) of the healed wound sites, described as follows.
Improved rete ridge formation is described as epithelial extensions that project into the underlying connective tissue in both skin and mucous membrances—improved rete ridge formation is a sign of tissue regeneration rather than fibrosis/scarring (reduced rete ridge formation).

[3] = test system: healed wound sites; experiment: Physical properties of healed wounds, summary; assay type: in vivo, porcine; conditions: compared to the control
Experimental: as §2
Wounds treated with 0.9% saline provided the least wound healing integrity for elasticity, max force, strain, and energy peak parameters.

[4] = test system: closed excisional wounds; experiment: Collagen organization (plane polarized light) of closed excisional wounds; assay type: in vivo, Yucatan Miniature Swine
Experimental: as §2
Regarding collagen organization, the number of wounds indicating collagen infiltration into the scar were identified by polarized imaging (plane polarized light).

[5] = test system: 8 mm ear punch wound; experiment: Rabbit ear punch: rate of ear closure; assay type: in vivo; conditions: after day 4; phospholipid spray
Experimental: (§3) Compounds of Formula (I) were tested and compared to saline control in elastic cartilage regeneration tests. Rabbit ears were punched through and through with an 8 mm punch. 4 holes were punched in each ear of the specimen (four positions L1, L2, L3, and L4 in the left ear and four positions R5, R6, R7, and R8 in right ear). Saline was applied via a spray on the control specimen, Compound 8 was applied via a phospholipid spray on another specimen, and Compound 18 was applied via a phospholipid spray on yet another specimen. The phospholipid spray contained compound (45 mg), butylene glycol (2 mL), polysorbate 20 (2 mL), phosphotidyl choline (0.5 g), ethanol (2 mL), and ultra pure water (40 mL).
FIG. 4 provides photographs of the wounds after treatment with saline, compound 8, or compound 18 on Days 0 and 23. Ear punch area related to wound closure was measured at 2- to 3-day intervals from day 0 to day 39.

[6] = test system: elastic cartilage; experiment: Elastic cartilage regeneration in rabbit ear punch wounds (stained cross sections, day 45); assay type: in vivo; conditions: for average distance between opposing cartilage endplates: original 8 mm wound margin, saline 6 mm; for average cartilage growth upon closure of the wound: saline 2 mm; for average cartilage tissue regrowth: saline about 25%; for cartilage regeneration by histology: versus control
Experimental: as §3
At day 45, the tests were stopped and the tissue was processed. An embed cut was made across the center point of the healed wounds in each site (FIG. 7, top). A slide was used to obtain sectioned tissue sample for staining and imaging (FIG. 7, bottom).
After staining with either Safronin O or Trichrome Blue, the distance between the opposing cartilage endplates was measured. From the original 8 mm wound margin distance, the saline control averaged 6 mm of distance between opposing cartilage endplates (FIG. 8), or 2 mm of average cartilage growth upon closure of the wound (about 25% average cartilage tissue regrowth). Compounds of Formula (I) (Compound 8 and Compound 18) provided about 2-3 mm average distance between opposing cartilage endplates (FIG. 8), or […] of average cartilage growth upon closure of the wound (about 68-75% average cartilage tissue regrowth).
FIGS. 9-11 display the original 8 mm wound margin (top, two vertical gray lines) and in an inset (bottom left, curved gray line). FIGS. 9-11 show expanded views of the cartilage regeneration site where chondrocytes are newly formed within the wound margin. Comparing FIG. 10 (Compound 8) and FIG. 11 (Compound 18) to FIG. 9 (control), cartilage regeneration using compounds of Formula (I) was confirmed.

Compound | wound healing throughout the entire test [1] | rete ridge formation compared to the saline control [2] | wound healing integrity (physical properties of the healed wound site) [3] | number of wounds indicating collagen infiltration into the scar [4] [wounds] | rate of ear closure versus control [5] | average distance between opposing cartilage endplates [6] | average cartilage growth upon closure of the wound [6] | average cartilage tissue regrowth [6] | cartilage regeneration by histology [6]
O=c1[nH]c(-c2ccc(-c3ccc(Br)nc3)cc2)nc2c1CSCC2 [Compound 7, 2-(4-(6-bromopyridin-3-yl)phenyl)-3,5,7,8-tetrahydro-4H-thiopyrano [4,3-d]pyrimidin-4-one] | improved wound healing throughout the entire test | improved wound healing compared to the saline control (rete ridge/mm) | – | – | – | – | – | – | –
O=c1[nH]c(-c2ccc(-c3ccc(B(O)O)cc3)cc2)nc2c1CSCC2 [Compound 10, (4′-(4-oxo-3,5,7,8-tetrahydro-4H-thiopyrano[4,3-d]pyrimidin-2-yl)-[1,1′-biphenyl]-4-yl)boronic acid] | – | – | greatest wound healing integrity | 7 | – | – | – | – | –
CC(C)(OCCO)c1ccc(-c2nc3c(c(=O)[nH]2)CSCC3)cc1 [Compound 8, 2-(4-(2-(2-hydroxyethoxy)propan-2-yl)phenyl)-3,5,7,8-tetrahydro-4H-thiopyrano[4,3-d]pyrimidin-4-one] | improved wound healing throughout the entire test | improved wound healing compared to the saline control (rete ridge/mm) | – | – | improved the rate of ear closure over the control | 2-3 mm | 5.5-6 mm | 68-75% | newly formed chondrocytes are more numerous and larger than in the control
COC(=O)NCCOC(C)(C)c1ccc(-c2nc3c(c(=O)[nH]2)CSCC3)cc1 [Compound 18, methyl (2-((2-(4-(4-oxo-3,5,7,8-tetrahydro-4H-thiopyrano[4,3-d]pyrimidin-2-yl)phenyl)propan-2-yl)oxy)ethyl)carbamate] | – | – | – | – | improved the rate of ear closure over the control | 2-3 mm | 5.5-6 mm | 68-75% | newly formed chondrocytes are more numerous and larger than in the control
